Tests used:
M. alcahphilum = assay: Antimicrobial activity of Ptet inducer anhydrotetracycline, evaluated on methanol; assay type: cell-based, Methylotuvimicrobium alcaliphilum
Procedure: Luria-Bertani (LB) broth and agar plates are routinely used to culture E. coli cells at 37° C. For routine cultivation of M. alcahphilum strain WT (wild type) and its derivatives, Pi (π) media with 3% (w/v) NaCl is used as described in Collins and Kaluzhnaya.^56 When needed, kanamycin (Kan) is added to the growth medium at 100 μg/mL for ts. alcahphilum and 50 μg/mL for E. coli cultures. Ampicillin is added to the growth medium at 100 μg/mL. M alcahphilum cell cultures are grown as batch cultures, either 4 mL culture in 20 mL anaerobic glass tubes or 10 mL culture in 50 mL serum vials, under a methane (99.9%; Airgas): air atmosphere (1:1). Cell cultures are incubated at 30° shaking at 220 rpm. Cell growth is measured as optical density (OD 600 nm) using Spectronic 200E spectroscope at time points mentioned in results and discussion. Single colony isolates and transformant selections are performed on Pi media agar plates incubated in anaerobic jars (Oxoid; Remel) under a methane-air atmosphere (1:1). For M. alcahphilum (pDA17) induction, antimicrobial activity of Ptet inducer, anhydrotetracycline (aTC) is first evaluated (FIG. 7) on methanol, it is observed that aTC antimicrobial effect on M. alcahphilum is apparent at concentration >2.5 μg/mL. Thus, based on the observation and previous report 33 , concentration of 1 μg/mL aTC is used for optimal gene expression. […]

[1] = system: M. alcaliphilum strain DSM19304 (WT); assay: Inhibitory effect of rhamnolipids on growth (OD600) of M. alcaliphilum wild type on CH4; assay type: cell-based, Methylotuvimicrobium alcaliphilum
Source text: M. alcaliphilum converts methane by sequential oxidation to formaldehyde, which enters the central carbon metabolism through the RUMP pathway^39. M. alcaliphilum produces high amounts of glycogen, sucrose and ectoine with smaller amounts of lactate, formate, succinate and no known reports of RLs^38,40,41. Rhamnolipids are used as biocontrol/anti-microbial agents, and increasing rhamnolipid concentrations are found to negatively impact growth of Gram-negative and Gram-positive heterologous hosts, E. coli, Bacillus subtilis and Corynebacterium glutamicum^23. Therefore, M. alcaliphilum growth is tested in the presence of RLs. […] The RL toxicity to M. alcaliphilum is much higher than reported concentrations in other Gram-negative host like E. coli (>90 g/L). The toxicity of RLs to M. alcaliphilum required adaptive evolution to permit the strain to produce rhamnolipids.
Luria-Bertani (LB) broth and agar plates are routinely used to culture E. coli cells at 37° C. For routine cultivation of M. alcahphilum strain WT (wild type) and its derivatives, Pi (π) media with 3% (w/v) NaCl is used as described in Collins and Kaluzhnaya.^56 When needed, kanamycin (Kan) is added to the growth medium at 100 μg/mL for ts. alcahphilum and 50 μg/mL for E. coli cultures. Ampicillin is added to the growth medium at 100 μg/mL. M alcahphilum cell cultures are grown as batch cultures, either 4 mL culture in 20 mL anaerobic glass tubes or 10 mL culture in 50 mL serum vials, under a methane (99.9%; Airgas): air atmosphere (1:1). Cell cultures are incubated at 30° shaking at 220 rpm. Cell growth is measured as optical density (OD 600 nm) using Spectronic 200E spectroscope at time points mentioned in results and discussion. Single colony isolates and transformant selections are performed on Pi media agar plates incubated in anaerobic jars (Oxoid; Remel) under a methane-air atmosphere (1:1). For M. alcahphilum (pDA17) induction, antimicrobial activity of Ptet inducer, anhydrotetracycline (aTC) is first evaluated (FIG. 7) on methanol, it is observed that aTC antimicrobial effect on M. alcahphilum is apparent at concentration >2.5 μg/mL. Thus, based on the observation and previous report 33 , concentration of 1 μg/mL aTC is used for optimal gene expression. M. alcahphilum (pDA17) cultures are induced with anhydrotetracycline (1 μg/mL) at time of inoculation^33.

[2] = system: M. alcaliphilum strain DASS; assay: Rhamnolipid tolerance of the adapted strain after adaptive laboratory evolution; assay type: cell-based, Methylotuvimicrobium alcaliphilum
Procedure: A course of adaptive laboratory evolution to allow M. alcaliphilum to grow on CH4 in the RLs is followed for four months. During this adaptation, M. alcaliphilum strain DSM19304 (hereafter referred as WT, wild type) is subjected to gradually increasing RL concentration starting from 0.5 g/L to 5 g/L (FIG. 2B). At the end of multiple transfers over a period of four months, an M. alcaliphilum strain tolerant to RLs (strain DASS) is obtained.
M. alcahphilum strain DSM19304 is grown in batch cultures of 10 mL Pi media in 50 mL serum vials under a methane-air atmosphere at 30° C. with agitation at 200 rpm. To adapt the cells to grow in the presence of RLs, 0.5 g/L RL (90% mono-RL, Millipore Sigma) is supplemented to the starting cell culture. The concentration of RLs is increased gradually and stepwise (1, 1.5, 2, 3, 4 and 5 g/L) to achieve a final strain of M. alcahphilum tolerant to 5 g/L RL. A 0.1% inoculum is manually transferred from a growing batch culture to a fresh culture in 48-60h. The RL concentration in the media is increased to next higher concentration when the OD 600 nm at 48 h of the growing batch culture with RL reached similar OD600 to WT (>1.0) at the end of 48 h. After the adaptation, single colonies of M. alcahphilum strain DASS are isolated on Pi media agar plates. Multiple single colony isolates are confirmed to be M. alcahphilum via 16S rRNA sequencing to rule out possibility of co-contaminants. No differences are observed in growth of multiple single colonies that are tested, one clone is selected for further analysis and plasmid transformation.

E. coli = settings: literature; cited from earlier work

Row | Compound | concentration at which antimicrobial effect is apparent (M. alcahphilum) | growth inhibition ([1]; 1 g/L RL amendment, 36 hours of culture) | concentration inhibitory to growth ([1]; M. alcaliphilum DSM19304) | reduction in final optical density ([1]; medium amended with 0.1 g/L RL, 36 hours of culture) | MIC ([1]; parent strain DSM19304) | concentration of rhamnolipids that cannot be tolerated ([1]; strain DSM19304, surfactant effects) | fold higher concentration in which the adapted strain grows compared to parent strain ([2]; DASS vs parent strain) | tolerated rhamnolipid concentration ([2]; evolved strain DASS, grown on CH4, listed as RL) | growth with RL in the absence of CH4 (RL as carbon source) ([2]; strain DASS, 5 g/L RL, no CH4) | reported toxic concentration (E. coli)
1 | Cc1c2c(c(O)c3c(O)cccc13)C(=O)[C@]1(O)C(=O)C(C(N)=O)=C(O)[C@@H](N(C)C)[C@@H]1C2 [aTC, anhydrotetracycline] | > 2.5 µg/mL |  |  |  |  |  |  |  |  | 
2 | rhamnolipids |  | almost complete inhibition | < 0.05 g/L | 50% | 0.5 g/L | 0.5 g/L | 10 fold | 5 g/L | did not promote growth | > 90 g/L

From patent US20230399666A1, “METHODS AND COMPOSITIONS FOR THE PRODUCTION OF RHAMNOLIPID” (THE REGENTS OF THE UNIVERSITY OF CALIFORNIA, priority 2022, published 2023)
